The values that follow come from patent US10919879B2, “Synthesis and novel salt forms of (R)-5-((E)-2-pyrrolidin-3-ylvinyl)pyrimidine” (Oyster Point Pharma, Inc., priority 2008, dated 2021).

One data set has as its target α4β2 nicotinic subtype (Homo sapiens, UniProt P17787+P43681). Particulars: α4β2 over α7, ganglionic and muscle subtypes; background statement, no test described; cited from earlier work.
Data set [1] in a line: Stability of the free base. The settings on record: free base form, viscous oil. In kind it is physicochemical.
Data set [2] is described as follows: Water solubility of the free base. In kind it is physicochemical. The settings on record: free base form, viscous oil. As to the method: Aqueous solubility was determined by suspending sufficient compound in water to give a maximum final concentration of ≥10 mg/mL of the parent free-form of the compound. The suspension was equilibrated at 25° C. for 24 h, and then the pH was measured. The suspension was then filtered through a glass fiber C filter into a 96 well plate. The filtrate was then diluted by a factor of 101. Quantitation was by HPLC with reference to a standard solution of approximately 0.1 mg/mL in DMSO. Different volumes of the standard, diluted and undiluted sample solutions were injected. The solubility was calculated using the peak areas determined by integration of the peak found at the same retention time as the principal peak in the standard injection. If there was sufficient solid in the filter plate, the XRPD was collected.

Sequence of α4β2 nicotinic subtype (P43681 29-627 limits assumed): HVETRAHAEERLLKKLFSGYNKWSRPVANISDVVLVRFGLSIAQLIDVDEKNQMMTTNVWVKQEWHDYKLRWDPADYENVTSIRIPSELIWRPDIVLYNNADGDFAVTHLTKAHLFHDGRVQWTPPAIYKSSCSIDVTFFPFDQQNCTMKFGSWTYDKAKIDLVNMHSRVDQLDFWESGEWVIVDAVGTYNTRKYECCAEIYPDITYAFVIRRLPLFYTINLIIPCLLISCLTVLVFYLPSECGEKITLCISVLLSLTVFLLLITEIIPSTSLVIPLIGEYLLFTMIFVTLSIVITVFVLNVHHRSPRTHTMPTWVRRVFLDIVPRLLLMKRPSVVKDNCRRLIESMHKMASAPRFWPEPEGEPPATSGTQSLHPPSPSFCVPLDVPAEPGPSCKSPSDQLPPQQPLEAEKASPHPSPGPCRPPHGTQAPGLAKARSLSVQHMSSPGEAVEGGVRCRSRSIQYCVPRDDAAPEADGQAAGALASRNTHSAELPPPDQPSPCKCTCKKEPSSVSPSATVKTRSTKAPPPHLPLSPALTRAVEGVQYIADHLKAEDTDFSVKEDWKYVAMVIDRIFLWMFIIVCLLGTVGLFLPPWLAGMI
Sequence of α4β2 nicotinic subtype (P17787 26-502): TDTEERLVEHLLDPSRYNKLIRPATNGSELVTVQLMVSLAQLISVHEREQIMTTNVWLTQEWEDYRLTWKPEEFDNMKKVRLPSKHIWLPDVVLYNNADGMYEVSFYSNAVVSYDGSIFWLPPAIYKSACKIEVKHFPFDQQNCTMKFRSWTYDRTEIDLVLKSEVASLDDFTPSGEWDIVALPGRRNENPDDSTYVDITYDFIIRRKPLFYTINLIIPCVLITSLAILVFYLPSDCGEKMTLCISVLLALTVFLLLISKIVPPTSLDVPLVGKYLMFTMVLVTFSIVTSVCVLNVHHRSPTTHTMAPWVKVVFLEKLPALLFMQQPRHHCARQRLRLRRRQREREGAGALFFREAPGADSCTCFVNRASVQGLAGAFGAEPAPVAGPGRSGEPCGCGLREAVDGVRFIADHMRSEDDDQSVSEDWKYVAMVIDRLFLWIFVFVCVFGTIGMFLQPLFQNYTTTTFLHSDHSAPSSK

Take `C(=C\[C@H]1CCNC1)/c1cncnc1` [(R)-5-((E)-2-pyrrolidin-3-ylvinyl)pyrimidine]: the NNR agonist selectivity result at α4β2 nicotinic subtype is “selectivity for the α4β2 nicotinic subtype over other nicotinic subtypes”. For the same compound, in data set [1], the stability result is listed as “limited”. The water solubility entry in data set [2] is listed as “limited”.
